From patent publication US7238801B2, “Phthalocyanine compound, method for production thereof, and near infrared absorbing dye and near infrared absorbing filter using same” (Nippon Shokubai Co., Ltd., priority 2002, dated 2007)
Where two headings read alike, the source gives them in different places.

Columns and labels:
Type in all cases: physicochemical
[1] = Maximum absorption wavelength by spectrophotometer
Experimental: Now, working examples and comparative examples will be described below. The maximum absorption wavelengths (λmax) reported in this invention are magnitudes determined in acetone.
The phthalocyanine compound obtained in the present example, i.e. VOPc(PhS)8{2,6-(CH3)2PhO}4{(C2H5)2NCH2CH2NH}4, was tested for maximum absorption wavelengths in acetone and in chloroform by the use of a spectrophotometer (made by Shimadzu Seisakusho Ltd. and sold under the trademark designation of “UVl-3100”).

[2] = Solubility in toluene and methyl ethyl ketone at room temperature; settings: 10 ml, room temperature (25° C.), visual; for Solubility MEX: methyl ethyl ketone
Description: The solubility shown in Table 23 represents the data obtained by rating the relevant values on the […] scale, wherein ⊚ stands for a value of not less than 5% by weight, ◯ for a value of not less than 1% by weight and less than 5% by weight, Δ for a value of not less than 0.1% by weight and less than 1% by weight, and X for a value of less than 0.1% by weight.

[3] = Maximum absorption wavelength by spectrophotometer; remark: listed apart in the source

Row | Substance | Max. absorption wavelength (in acetone) [1] [nm] | Max. absorption wavelength (in chloroform) [1] [nm] | Solubility MEX [2] | Solubility toluene [2] | Max. absorption wavelength (in acetone) [3] [nm]
1 | CuPc(2,5-Cl2PhO)8{2,6-(CH3)2PhO}4(PhCH2NH)4 [reference compound] | 807 |  |  |  | 
2 | VOPc(2,5-Cl2PhO)8{2,6-(CH3)2PhO}4(PhCH2NH)4 [reference compound] | 870 |  |  |  | 
3 | VOPc(2,5-Cl2PhO)8{2,6-(CH3)2PhO}4{Ph(CH)3CHNH}3]F [reference compound] | 834 |  |  |  | 
4 | VOPc(2,5-Cl2PhO)8{2,6-Br2-4-CH3PhO}4 {Ph(CH)3CHNH}3]F [reference compound] | 840 |  |  |  | 
5 | VOPc(4-CNPhO)8{2,6-(CH3)2PhO}4{Ph(CH)3CHNH}3F [reference compound] | 834 |  |  |  | 
6 | VOPc(PhS)8{2,6-(CH3)2PhO}4(PhCH2NH)4 [reference compound] | 912 |  |  |  | 
7 | VOPc(PhS)8{2,6-(CH3)2PhO}4[{(CH3)2CH}2NCH2CH2NH]4 [Example 3] | 952 | 970 | ⊚ (a value of not less than 5% by weight) | ⊚ (a value of not less than 5% by weight) | 
8 | VOPc(PhS)8{2,6-(CH3)2PhO}4{(C2H5)2NCH2CH2NH}4 [Example 1] | 941 | 960 | ⊚ (a value of not less than 5% by weight) | ⊚ (a value of not less than 5% by weight) | 
9 | VOPc(PhS)8{2,6-(CH3)2PhO}4{(CH3)2CHO(CH2)3NH}4 [Example 9] | 930 | 949 | ⊚ (a value of not less than 5% by weight) | ⊚ (a value of not less than 5% by weight) | 
10 | VOPc(PhS)8{2,6-(CH3)2PhO}4{(CH3CH2O(CH2)3NH}4 [Example 8] | 928 | 947 | ⊚ (a value of not less than 5% by weight) | ⊚ (a value of not less than 5% by weight) | 
11 | VOPc(PhS)8{2,6-(CH3)2PhO}4{CH3(CH2)3CH(C2H5)CH2NH}4 [Example 16] | 939 | 958 | ⊚ (a value of not less than 5% by weight) | ⊚ (a value of not less than 5% by weight) | 
12 | VOPc(PhS)8{2,6-(CH3)2PhO}4{CH3(CH2)3CH(C2H5)CH2O(CH2)3NH}4 [Example 11] | 933 | 952 | ⊚ (a value of not less than 5% by weight) | ⊚ (a value of not less than 5% by weight) | 
13 | VOPc(PhS)8{2,6-(CH3)2PhO}4{CH3(CH2)3O(CH2)3NH}4 [Example 10] | 930 | 950 | ⊚ (a value of not less than 5% by weight) | ⊚ (a value of not less than 5% by weight) | 
14 | VOPc(PhS)8{2,6-(CH3)2PhO}4{CH3(CH2)5NH}4 [Example 15] | 930 | 948 | ⊚ (a value of not less than 5% by weight) | ⊚ (a value of not less than 5% by weight) | 
15 | VOPc(PhS)8{2,6-(CH3)2PhO}4{CH3(CH2)7NH}4 [Example 18] | 931 | 950 | ⊚ (a value of not less than 5% by weight) | ⊚ (a value of not less than 5% by weight) | 
16 | VOPc(PhS)8{2,6-(CH3)2PhO}4{CH3(CH2)17NH}4 [Example 19] | 935 | 954 | ⊚ (a value of not less than 5% by weight) | ⊚ (a value of not less than 5% by weight) | 
17 | VOPc(PhS}8{2,6-(CH3)2PhO}4[{CH3(CH2)2CH}2NCH2CH2NH]4 [Example 4] | 944 | 963 | ⊚ (a value of not less than 5% by weight) | ⊚ (a value of not less than 5% by weight) | 
18 | VOPc{2-(CH3O)PhS}8{2,6-(CH3)2PhO}4{(C2H5)2NCH2CH2NH}4 [Example 2] | 950 | 970 | ⊚ (a value of not less than 5% by weight) | ⊚ (a value of not less than 5% by weight) | 
19 | VOPc{4-(CH3O)PhS}8{2,6-(CH3)2PhO}4{CH3(CH2)3CH(C2H5)CH2NH}4 [Example 17] | 960 | 980 | ⊚ (a value of not less than 5% by weight) | ⊚ (a value of not less than 5% by weight) | 962
